Source: US20250101041A1, “POSITIVE ALLOSTERIC MODULATORS OF THE MUSCARINIC ACETYLCHOLINE RECEPTOR M4” (Vanderbilt University, priority 2022, published 2025)

Biological target: T1, human mAChR M4 (Homo sapiens, UniProt P08173)
T1 construct: expressed in transfected cells; host or cells: CHO-K1 (American Type Culture Collection), stably expressing hM4 and Gqi5
T1 sequence (P08173 1-479): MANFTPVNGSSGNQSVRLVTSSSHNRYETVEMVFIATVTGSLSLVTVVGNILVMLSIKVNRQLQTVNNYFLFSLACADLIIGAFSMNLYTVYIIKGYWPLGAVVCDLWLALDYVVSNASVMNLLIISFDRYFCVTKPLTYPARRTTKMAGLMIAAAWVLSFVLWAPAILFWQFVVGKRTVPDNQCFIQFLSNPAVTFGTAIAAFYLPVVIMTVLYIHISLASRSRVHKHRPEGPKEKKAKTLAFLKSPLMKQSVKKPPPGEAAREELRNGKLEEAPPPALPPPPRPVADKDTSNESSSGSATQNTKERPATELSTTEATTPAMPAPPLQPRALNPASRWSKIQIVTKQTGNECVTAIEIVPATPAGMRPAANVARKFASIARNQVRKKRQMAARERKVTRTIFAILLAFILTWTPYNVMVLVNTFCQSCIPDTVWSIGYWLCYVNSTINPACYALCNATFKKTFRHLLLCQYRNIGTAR
Assay: mAChR M4 cell-based functional assay: calcium mobilization (Fluo-4, FDSS), potentiation of EC20 acetylcholine response in hM4-Gqi5 CHO-K1 cells
Details: human M4; for Emax at 30 µM: CHO-K1, % ACh maximum at 30 μM; for EC50: potentiation of EC20 acetylcholine response, calcium mobilization
Method in brief: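 CHO-K1 cells stably co-expressing human M4 and chimeric Gqi5, loaded with Fluo-4 AM (50 min, 37 °C). Compounds in 11-point 1:3 series added first; EC20 acetylcholine added at 144 s and again at 230 s. Calcium read on FDSS at 1 Hz; EC50 and Emax from four-parameter logistic fit of potentiated EC20 response.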

Structure (SMILES) | Emax at 30 µM | EC50
Cc1cnccc1-c1cnc2c(c1)CN(c1nn3c(=O)cc(C(F)F)nc3c(C)c1C)CC2 [Compound 1-307, 2-(difluoromethyl)-8,9-dimethyl-7-(3-(3-methylpyridin-4-yl)-7,8-dihydro-1,6-naphthyridin-6(5H)-yl)-4H-pyrimido[1,2-b]pyridazin-4-one] | 88% | 69 nM
COc1ccncc1-c1cnc2c(c1)CN(c1nn3c(=O)cc(C)nc3cc1C)CC2 [Compound 1-295, 7-(3-(4-methoxypyridin-3-yl)-7,8-dihydro-1,6-naphthyridin-6(5H)-yl)-2,8-dimethyl-4H-pyrimido[1,2-b]pyridazin-4-one] | 96% | 89 nM
Cc1ccc(-c2cnc3c(c2)CN(c2nn4c(=O)ccnc4c(C4CC4)c2C)CC3)cn1 [Compound 1-114, 9-cyclopropyl-8-methyl-7-(3-(6-methylpyridin-3-yl)-7,8-dihydro-1,6-naphthyridin-6(5H)-yl)-4H-pyrimido[1,2-b]pyridazin-4-one] | 73% | 615 nM
Cc1c(N2CCc3ncc(-c4cnn(C5CC5)c4)cc3C2)nn2c(=O)ccnc2c1C [Compound 1-152, 7-(3-(1-cyclopropyl-1H-pyrazol-4-yl)-7,8-dihydro-1,6-naphthyridin-6(5H)-yl)-8,9-dimethyl-4H-pyrimido[1,2-b]pyridazin-4-one] | 80% | 133 nM
Cc1ccc(-c2cnc3c(c2)CN(c2nn4c(=O)ccnc4c(C)c2C)CC3)cc1F [Compound 1-143, 7-(3-(3-fluoro-4-methylphenyl)-7,8-dihydro-1,6-naphthyridin-6(5H)-yl)-8,9-dimethyl-4H-pyrimido[1,2-b]pyridazin-4-one] | 102% | 416 nM
Cc1cc(=O)n2nc(N3CCc4ncc(-c5cncnc5)cc4C3)c(C)c(C)c2n1 [Compound 1-118, 2,8,9-trimethyl-7-(3-(pyrimidin-5-yl)-7,8-dihydro-1,6-naphthyridin-6(5H)-yl)-4H-pyrimido[1,2-b]pyridazin-4-one] | 83% | 6070 nM
Cc1cc(=O)n2nc(N3CCc4ncc(-c5ccccc5C(C)C)cc4C3)c(C)c(C)c2n1 [Compound 1-247, 7-(3-(2-isopropylphenyl)-7,8-dihydro-1,6-naphthyridin-6(5H)-yl)-2,8,9-trimethyl-4H-pyrimido[1,2-b]pyridazin-4-one] | 55% | 1030 nM
Cc1cc2nc(C(=O)NC3(C#N)CC3)cc(=O)n2nc1N1CCc2ncc(C(F)(F)F)cc2C1 [Compound 1-46, N-(1-cyanocyclopropyl)-8-methyl-4-oxo-7-(3-(trifluoromethyl)-7,8-dihydro-1,6-naphthyridin-6(5H)-yl)-4H-pyrimido[1,2-b]pyridazine-2-carboxamide] | 99% | 118 nM
Cc1cc(=O)n2nc(N3CCc4ncc(-c5ccnn5C5COC5)cc4C3)c(C)c(C)c2n1 [Compound 1-176, 2,8,9-trimethyl-7-(3-(1-(oxetan-3-yl)-1H-pyrazol-5-yl)-7,8-dihydro-1,6-naphthyridin-6(5H)-yl)-4H-pyrimido[1,2-b]pyridazin-4-one] | 74% | 4840 nM
Cc1cc2nc(C(F)(F)F)cc(=O)n2nc1N1CCc2ncc(C(F)(F)F)cc2C1 [Compound 1-17, 8-methyl-2-(trifluoromethyl)-7-(3-(trifluoromethyl)-7,8-dihydro-1,6-naphthyridin-6(5H)-yl)-4H-pyrimido[1,2-b]pyridazin-4-one] | 79% | 105 nM
Cc1c(N2CCc3ncc(-c4cnn(C5CCCCO5)c4)cc3C2)nn2c(=O)ccnc2c1C (stereo not drawn) [Compound 1-150, 8,9-dimethyl-7-(3-(1-(tetrahydro-2H-pyran-2-yl)-1H-pyrazol-4-yl)-7,8-dihydro-1,6-naphthyridin-6(5H)-yl)-4H-pyrimido[1,2-b]pyridazin-4-one] | 74% | 511 nM
COc1cc(C)c(-c2cnc3c(c2)CN(c2nn4c(=O)cc(C)nc4c(C)c2C)CC3)cn1 [Compound 1-198, 7-(3-(6-methoxy-4-methylpyridin-3-yl)-7,8-dihydro-1,6-naphthyridin-6(5H)-yl)-2,8,9-trimethyl-4H-pyrimido[1,2-b]pyridazin-4-one] | 83% | 1920 nM
Cc1cc(=O)n2nc(N3CCc4ncc(-c5ccccc5C(F)(F)F)cc4C3)c(C)cc2n1 [Compound 1-255, 2,8-dimethyl-7-(3-(2-(trifluoromethyl)phenyl)-7,8-dihydro-1,6-naphthyridin-6(5H)-yl)-4H-pyrimido[1,2-b] pyridazin-4-one] | 60% | 2370 nM
Cc1ccncc1-c1cnc2c(c1)CN(c1nn3c(=O)ccnc3c(C)c1C)CC2 [Compound 1-95, 8,9-dimethyl-7-(3-(4-methylpyridin-3-yl)-7,8-dihydro-1,6-naphthyridin-6(5H)-yl)-4H-pyrimido[1,2-b]pyridazin-4-one] | 99% | 68 nM
Cc1cc2nc(C(F)F)cc(=O)n2nc1N1CCc2ncc(C(F)(F)F)cc2C1 [Compound 1-26, 2-(difluoromethyl)-8-methyl-7-(3-(trifluoromethyl)-7,8-dihydro-1,6-naphthyridin-6(5H)-yl)-4H-pyrimido[1,2-b]pyridazin-4-one] | 74% | 141 nM
Cc1cc2ncc(N3CCOCC3)c(=O)n2nc1N1CCc2ncc(C(F)(F)F)cc2C1 [Compound 1-19, 8-Methyl-3-morpholino-7-(3-(trifluoromethyl)-7,8-dihydro-1,6-naphthyridin-6(5H)-yl)-4H-pyrimido[1,2-b]pyridazin-4-one] | 70% | 113 nM

Continued, values first:

Emax at 30 µM | EC50 | Structure (SMILES)
86% | 41 nM | Cc1cc2nc(C(F)F)cc(=O)n2nc1N1CCc2ncc(Nc3ccnn3C)cc2C1 [Compound 2-27, 2-(difluoromethyl)-8-methyl-7-(3-((1-methyl-1H-pyrazol-5-yl)amino)-7,8-dihydro-1,6-naphthyridin-6(5H)-yl)-4H-pyrimido[1,2-b]pyridazin-4-one]
83% | 969 nM | COCc1cc(=O)n2nc(N3CCc4ncc(-c5ncc(C)cc5C)cc4C3)c(C)cc2n1 [Compound 1-381, 7-(3-(3,5-dimethylpyridin-2-yl)-7,8-dihydro-1,6-naphthyridin-6(5H)-yl)-2-(methoxymethyl)-8-methyl-4H-pyrimido[1,2-b] pyridazin-4-one]
80% | 1270 nM | Cc1cc2nccc(=O)n2nc1N1CCc2ncc(N3CCOC(c4cccnc4)C3)cc2C1 (stereo not drawn) [Compound 2-77, 8-methyl-7-(3-(2-(pyridin-3-yl)morpholino)-7,8-dihydro-1,6-naphthyridin-6(5H)-yl)-4H-pyrimido[1,2-b]pyridazin-4-one]
83% | 18 nM | Cc1cc(=O)n2nc(N3CCc4ncc(N5CCCn6nccc65)cc4C3)c(C)c(C)c2n1 [Compound 2-23, 7-(3-(6,7-dihydropyrazolo[1,5-a]pyrimidin-4(5H)-yl)-7,8-dihydro-1,6-naphthyridin-6(5H)-yl)-2,8,9-trimethyl-4H-pyrimido[1,2-b]pyridazin-4-one]
97% | 64 nM | Cc1cc2nc(C)c(F)c(=O)n2nc1N1CCc2ncc(Nc3ccncc3F)cc2C1 [Compound 2-156, 3-fluoro-7-(3-((3-fluoropyridin-4-yl)amino)-7,8-dihydro-1,6-naphthyridin-6(5H)-yl)-2,8-dimethyl-4H-pyrimido[1,2-b]pyridazin-4-one]
99% | 210 nM | Cc1cc(F)ccc1-c1cnc2c(c1)CN(c1nn3c(=O)ccnc3cc1C)CC2 [Compound 1-443, 7-(3-(4-fluoro-2-methylphenyl)-7,8-dihydro-1,6-naphthyridin-6(5H)-yl)-8-methyl-4H-pyrimido [1,2-b]pyridazin-4-one]
55% | 426 nM | Cc1ccc(-c2cnc3c(c2)CN(c2nn4c(=O)ccnc4cc2C)CC3)nc1 [Compound 1-351, 8-methyl-7-(3-(5-methylpyridin-2-yl)-7,8-dihydro-1,6-naphthyridin-6(5H)-yl)-4H-pyrimido[1,2-b]pyridazin-4-one]
99% | 46 nM | COCc1cc(=O)n2nc(N3CCc4ncc(-c5ccc(CO)s5)cc4C3)c(C)cc2n1 [Compound 1-369, 7-(3-(5-(hydroxymethyl)thiophen-2-yl)-7,8-dihydro-1,6-naphthyridin-6(5H)-yl)-2-(methoxymethyl)-8-methyl-4H-pyrimido[1,2-b] pyridazin-4-one]
71% | – | Cc1cc2nccc(=O)n2nc1N1CCc2ncc(NC(=O)C3CC(F)(F)C3)cc2C1 [Compound 2-120, 3,3-difluoro-N-(6-(8-methyl-4-oxo-4H-pyrimido[1,2-b]pyridazin-7-yl)-5,6,7,8-tetrahydro-1,6-naphthyridin-3-yl)cyclobutane-1-carboxamide]
84% | 32 nM | Cc1cc2nccc(=O)n2nc1N1CCc2ncc(Nc3cccc(F)c3F)cc2C1 [Compound 2-106, 7-(3-((2,3-difluorophenyl)amino)-7,8-dihydro-1,6-naphthyridin-6(5H)-yl)-8-methyl-4H-pyrimido[1,2-b]pyridazin-4-one]
